Series [1] has as its system susceptible H37Rv M. tuberculosis, strain ATCC 25618. Kind of series: Mycobacterium tuberculosis susceptibility assay REMA (resazurin microtiter assay). The series is classed as cell-based. Conditions: Mycobacterium tuberculosis, 144 h, MTB growth, H37Rv, 6 days at 37° C., Middlebrook 7H9, read-out: REMA MIC. (The colour change of resazurin is a common sign of viable cells or microbes.)

A further series has as its system HepG2 cell line. Nature of the series: in vitro cytotoxicity assay (MTS tetrazolium reduction, cell viability). Type of series: cell-based. Conditions: Homo sapiens, HepG2, 48 h, MTS, read-out: IC50. On the procedure: In an embodiment, the in vitro cytotoxicity assay was carried out as follows. […] The assay was performed in 96 well plates for 48 h at 37° C. and 5% CO2 in incubation medium (low glucose DMEM with Glutamax, 10% FBS, 1% Pen/Strep and DMSO). Cells were exposed to 8 different compound concentrations in successive dilutions (usually, base 2), plus a positive control (a compound in a concentration known to decrease cell viability above 50%) and a negative control (incubation medium). Six replicate wells were assayed for each condition. Compound stock solutions were prepared in DMSO at 20 mM, whenever possible, filter sterilized, aliquoted and stored at −20° C. The maximum compound concentrations tested depend on its solubility in incubation medium, and on the maximum DMSO percentage allowable without loss of cell viability. At the end of the incubation period, tetrazolium reagent was added (CellTiter 96® AQueous Solution from Promega); cells were incubated for another 3 hours in order to promote tetrazolium reduction to formazan by viable cells. The amount of soluble formazan produced was evaluated by 490 nm absorbance reading in a spectrophotometer plate reader.

A further series in a line: physchem. The series is classed as physicochemical. Conditions: pH 7.4. How it is done:
The solution was allowed to mix in a rotator for 1 hour at 30 rpm.

A short description of series [2]: in vitro. Type of series: in vitro ADME. Conditions: human, plasma. On the procedure:
The percentage of the test compounds remaining after incubation in plasma and their half-lives (T1/2) were calculated.

Series [3] is described as follows: in vitro. Type of series: in vitro ADME. Conditions: human, plasma, pH 7.4.
Experimental: The assay was performed in a multiple-use 96-well dialysis unit (HTD96b dialyzer). […] 120 μl of non-diluted plasma spiked with the compound (1 μM, 1% final DMSO concentration) was added to one chamber and the same volume of phosphate buffer saline pH 7.4 to the other chamber. HTD96b dialyzer was covered with adhesive sealing film and incubated at 37° C. and 100 rpm orbital shaking for 5 hours. […] For sample preparation, an aliquot of the content of each chamber was mixed with the same volume of the blank opposite matrix. In order to define non-specific loss of the compound during this assay, standard solution was created by mixing an aliquot of spiked plasma with blank buffer without dialysis. Samples were diluted 10-fold with 100% acetonitrile with subsequent plasma proteins sedimentation by centrifugation. Supernatants were analysed using a Shimadzu VP HPLC system with a reverse phase column, coupled with a tandem mass spectrometer API 3000 (PE Sciex). The both positive and negative ion modes of the TurbolonSpray ion source were used. […]
The percentage of plasma protein bounded compound and its recovery were calculated using the equations below:
The percentage of plasma protein bounded compound and its recovery were calculated using the values obtained for each compound in the quantification of the 3 samples (in buffer, plasma and standard solution).

The structures appear in SMILES notation. In brackets after ≈: the same amount, converted by molar mass. Where two headings read alike, the source gives them in different places.

In general, MIC refers to the lowest concentration found to suppress growth. As a reminder, the IC50 is the concentration needed to halve the response being measured. Usually logD stands for lipophilicity at a set pH, counting ionised and neutral species. A higher logD goes with a more lipophilic compound. For orientation: half-life means the time needed for the level to fall by half in the phase considered. Read a low half-life as fast loss. By fraction unbound is commonly meant free concentration divided by total concentration. A high value points to weak binding. In the case of `CCOC(=O)C1CCN(c2ccc3cc(-c4cccc(O)c4)ccc3n2)CC1` [Compound 26, ethyl 1-(6-(3-hydroxyphenyl)quinolin-2-yl)piperidine-4-carboxylate], the MIC in series [1] (Table 1) and in series [1] (Table 2) was less than 7.8 µM each time. Moreover, the IC50 in the series on HepG2 cell line (Table 1, cytotoxicity) is more than 100 µM; with HepG2 cell line (Table 2, cytotoxicity), more than 100 µM. The compound also gave a logD in “physchem” of more than 4.5. The compound also returned a half-life at 1 μM in the series “in vitro [2]” of more than 2 h. The same compound yielded a fraction unbound at 5 h, 1 μM in the series “in vitro [3]” not above 0.01.
For `CCOC(=O)C1CCN(c2ccc3cc(-c4ccnc(F)c4)ccc3n2)CC1` [Compound 37, ethyl 1-(6-(2-fluoropyridin-4-yl)quinolin-2-yl)piperidine-4-carboxylate], in series [1] (Table 1), the MIC fell in the range of 7.8 to 15.6 µM (≈ 2.96 to 5.92 µg/mL). Also, the IC50 with HepG2 cell line (Table 1, cytotoxicity) is 50 to 100 µM.
On to `CCOC(=O)C1CCN(c2ccc3cc(-c4ccnc(C)c4)ccc3n2)CC1` [Compound 40, ethyl 1-(6-(2-methylpyridin-4-yl)quinolin-2-yl)piperidine-4-carboxylate], for which the MIC in series [1] (Table 1) was in the range of 7.8 to 15.6 µM (≈ 2.93 to 5.86 µg/mL). The IC50 with HepG2 cell line (Table 1, cytotoxicity) lay within 20 to 50 µM.
For `CCOC(=O)C1CCN(c2ccc3cc(-c4cc(OC)cc(OC)c4)ccc3n2)CC1` [Compound 41, ethyl 1-(6-(3,5-dimethoxyphenyl)quinolin-2-yl)piperidine-4-carboxylate], in that order: 7.8 to 15.6 µM (≈ 3.28 to 6.56 µg/mL) and 50 to 100 µM.
For `CCOC(=O)C1CCN(c2ccc3cc(-c4ccc5[nH]ccc5c4)ccc3n2)CC1` [Compound 42, ethyl 1-(6-(1H-indol-5-yl)quinolin-2-yl)piperidine-4-carboxylate], in that order: 7.8 to 15.6 µM (≈ 3.12 to 6.23 µg/mL) and 20 to 50 µM.
For the compound `CCOC(=O)C1CCCN(c2ccc3cc(-c4ccncc4)ccc3n2)C1` (centres unmarked) [Compound 54, ethyl 1-(6-(pyridin-4-yl)quinolin-2-yl)piperidine-3-carboxylate], in series [1] (Table 1), the MIC lay in the range of 7.8 to 15.6 µM (≈ 2.82 to 5.64 µg/mL). In addition, in the series on HepG2 cell line (Table 1, cytotoxicity), the IC50 was more than 100 µM.

The values above are taken from US12383548B2, “Antibacterial quinolines” (priority 2019, dated 2025).
